Source: patent US10105357B2, “Indication of antibiotic drugs for preparation of cancer inhibition pharmaceutical composition” (LAUNX BIOMEDICAL CO., LTD., priority 2014, dated 2018)
Read-outs that look alike come from different tables or passages of the source.

Legend:
[1] = system: HCT116 (p53+) (Colorectal Carcinoma)
[2] = system: A375 (Amelanotic Melanoma); assay: Cell viability analysis, skin cancer A375; format: cell-based, human; conditions: Homo sapiens, A-375, 72 h
[3] = system: AGS (Gastric Adenocarcinoma); assay: Cell viability analysis, gastric cancer AGS; format: cell-based, human; conditions: Homo sapiens, 72 h
[4] = system: PC3 (p53−) (Prostate Adenocarcinoma); assay: Cell viability analysis, prostate cancer PC3; format: cell-based, human; conditions: Homo sapiens, 72 h
[5] = system: Hep3B (hepatocellular carcinoma); assay: Cell viability analysis, hepatic cancer Hep3B; format: cell-based, human; conditions: Homo sapiens, Hep3B, 72 h, read-out: The results of antibiotic drug inhibiting cancer cell lines (cell viability analysis), Hep3B
[6] = system: HI650 (Lung Adenocarcinoma); assay: Cell viability analysis, lung cancer HI650; format: cell-based, human; conditions: Homo sapiens, NCI-H1650, 72 h
[7] = system: SAS (Tongue squamous cell carcinoma); assay: Cell viability analysis, tongue cancer SAS; format: cell-based, human; conditions: Homo sapiens, 72 h, read-out: The results of antibiotic drug inhibiting cancer cell lines (cell viability analysis), SAS
[8] = system: HL-60 (Acute Promyelocytic Leukemia); assay: Cell viability analysis, leukemia HL-60; format: cell-based, human; conditions: Homo sapiens, HL-60, 72 h, read-out: cell viability (survival rate), HL-60, drug 10 μM, 72 hours, WST-1, OD450 nm
[9] = system: BxPC-3; assay: Cell viability analysis, pancreatic cancer BxPC-3; format: cell-based, human; conditions: Homo sapiens, BXPC-3, 72 h, read-out: The results of antibiotic drug inhibiting cancer cell lines (cell viability analysis), BxPC-3
[10] = system: HepG2 (Hepatocellular Carcinoma); assay: Cell viability analysis, hepatic cancer HepG2; format: cell-based, human; conditions: Homo sapiens, HepG2, 72 h
[11] = system: TSGH-8301 (Urinary Bladder Carcinoma); assay: Cell viability analysis, bladder cancer TSGH-8301; format: cell-based, human; conditions: Homo sapiens, 72 h
[12] = system: MCF7 (Mammary Gland, Adenocarcinoma); assay: Cell viability analysis, breast cancer MCF7; format: cell-based, human; conditions: Homo sapiens, MCF7, 72 h
[13] = system: A549 (Lung Adenocarcinoma); assay: Cell viability analysis, lung cancer A549; format: cell-based, human; conditions: Homo sapiens, A549, 72 h
[14] = system: AsPC-1; assay: Cell viability analysis, pancreatic cancer AsPC-1; format: cell-based, human; conditions: Homo sapiens, ASPC1, 72 h, read-out: The results of antibiotic drug inhibiting cancer cell lines (cell viability analysis), AsPC-1
[15] = system: MDA-MB-231 (Mammary Gland, Adenocarcinoma); assay: Cell viability analysis, breast cancer MDA-MB-231; format: cell-based, human; conditions: Homo sapiens, MDA-MB-231, 72 h, read-out: The results of antibiotic drug inhibiting cancer cell lines (cell viability analysis), MDA-MB231
[16] = system: NIH: OVCAR-3; assay: Cell viability analysis, ovarian cancer NIH: OVCAR-3; format: cell-based, human; conditions: Homo sapiens, OVCAR-3, 72 h, read-out: The results of antibiotic drug inhibiting cancer cell lines (cell viability analysis), NIH-OVCAR-3
[17] = system: T24; assay: Cell viability analysis, bladder cancer T24; format: cell-based, human; conditions: Homo sapiens, T-24, 72 h, read-out: The results of antibiotic drug inhibiting cancer cell lines (cell viability analysis), T24
[18] = system: 786-O (Renal adenocarcinoma); assay: Cell viability analysis, renal cancer 786-O; format: cell-based, human; conditions: Homo sapiens, 786-0, 72 h, read-out: The results of antibiotic drug inhibiting cancer cell lines (cell viability analysis), 786-O
[19] = system: HeLa (Cervix Adenocarcinoma); assay: Cell viability analysis, cervical cancer HeLa; format: cell-based, human; conditions: Homo sapiens, HeLa, 72 h
[20] = system: LoVo (Colorectal Adenocarcinoma); assay: Cell viability analysis, colon cancer LoVo; format: cell-based, human; conditions: Homo sapiens, LoVo, 72 h
[21] = system: C-33A (Cervical carcinoma); assay: Cell viability analysis, cervical cancer C-33A; format: cell-based, human; conditions: Homo sapiens, C-33-A, 72 h, read-out: The results of antibiotic drug inhibiting cancer cell lines (cell viability analysis), C-33A
[22] = system: MKN-45 (Gastric Adenocarcinoma); assay: Cell viability analysis, gastric cancer MKN-45; format: cell-based, human; conditions: Homo sapiens, MKN-45, 72 h
[23] = system: TOV-21G; assay: Cell viability analysis, ovarian cancer TOV-21G; format: cell-based, human; conditions: Homo sapiens, TOV21G, 72 h, read-out: The results of antibiotic drug inhibiting cancer cell lines (cell viability analysis), TOV-21G
[24] = system: U-2OS; assay: Cell viability analysis, osteosarcoma U-2OS; format: cell-based, human; conditions: Homo sapiens, U2OS, 72 h, read-out: The results of antibiotic drug inhibiting cancer cell lines (cell viability analysis), U2OS
[25] = system: cancer cell lines; assay: Cell viability analysis (WST-1) on cancer cell lines; format: cell-based, human; conditions: drug 10 μM, 72 hours, WST-1; Table 3
[26] = system: BCC (basal cell carcinoma); assay: Cell viability analysis, skin cancer BCC; format: cell-based, human; conditions: Homo sapiens, 72 h, read-out: The results of antibiotic drug inhibiting cancer cell lines (cell viability analysis), BCC
[27] = read-out: The results of antibiotic drug inhibiting cancer cell lines (cell viability analysis), A375, A375, repeated experiment
[28] = read-out: cell viability (survival rate), A375, drug 10 μM, 72 hours, WST-1, OD450 nm
[29] = read-out: The results of antibiotic drug inhibiting cancer cell lines (cell viability analysis), AGS, repeated experiment
[30] = read-out: cell viability (survival rate), AGS, drug 10 μM, 72 hours, WST-1, OD450 nm
[31] = read-out: The results of antibiotic drug inhibiting cancer cell lines (cell viability analysis), PC-3, PC-3, repeated experiment
[32] = read-out: cell viability (survival rate), PC3, drug 10 μM, 72 hours, WST-1, OD450 nm
[33] = read-out: The results of antibiotic drug inhibiting cancer cell lines (cell viability analysis), H1650, H1650, repeated experiment
[34] = read-out: cell viability (survival rate), H1650, drug 10 μM, 72 hours, WST-1, OD450 nm
[35] = read-out: The results of antibiotic drug inhibiting cancer cell lines (cell viability analysis), HepG2, HepG2, repeated experiment
[36] = read-out: cell viability (survival rate), HepG2, drug 10 μM, 72 hours, WST-1, OD450 nm
[37] = read-out: The results of antibiotic drug inhibiting cancer cell lines (cell viability analysis), TSGH-8301, TSGH-8301, repeated experiment
[38] = read-out: cell viability (survival rate), TSGH, drug 10 μM, 72 hours, WST-1, OD450 nm
[39] = read-out: The results of antibiotic drug inhibiting cancer cell lines (cell viability analysis), MCF-7, MCF-7, repeated experiment
[40] = read-out: cell viability (survival rate), MCF7, drug 10 μM, 72 hours, WST-1, OD450 nm
[41] = read-out: The results of antibiotic drug inhibiting cancer cell lines (cell viability analysis), A549, A549, repeated experiment
[42] = read-out: cell viability (survival rate), A549, drug 10 μM, 72 hours, WST-1, OD450 nm
[43] = read-out: The results of antibiotic drug inhibiting cancer cell lines (cell viability analysis), HeLa, repeated experiment
[44] = read-out: cell viability (survival rate), HeLa, drug 10 μM, 72 hours, WST-1, OD450 nm
[45] = read-out: The results of antibiotic drug inhibiting cancer cell lines (cell viability analysis), LoVo, repeated experiment
[46] = read-out: cell viability (survival rate), LoVo, drug 10 μM, 72 hours, WST-1, OD450 nm
[47] = read-out: The results of antibiotic drug inhibiting cancer cell lines (cell viability analysis), MKN-45, MKN-45, repeated experiment
[48] = read-out: cell viability (survival rate), MKN-45, drug 10 μM, 72 hours, WST-1, OD450 nm

Structure (SMILES)	viability [1] [%]	viability at 10 µM [2, 27] [%]	viability at 10 µM [2, 28] [%]	viability at 10 µM [3, 29] [%]	viability at 10 µM [3, 30] [%]	viability at 10 µM [4, 31] [%]	viability at 10 µM [4, 32] [%]	viability at 10 µM [5] [%]	viability at 10 µM [6, 33] [%]	viability at 10 µM [6, 34] [%]	viability at 10 µM [8] [%]	viability at 10 µM [9] [%]	viability at 10 µM [10, 35] [%]	viability at 10 µM [10, 36] [%]	viability at 10 µM [11, 37] [%]	viability at 10 µM [11, 38] [%]	viability at 10 µM [12, 39] [%]	viability at 10 µM [12, 40] [%]	viability at 10 µM [13, 41] [%]	viability at 10 µM [13, 42] [%]	also measured
Cc1cc2c(s1)Nc1ccccc1N=C2N1CCN(C)CC1 [Olanzapine (Zyprexa), Olanzapine]	124	98.3	91.9	122	84.2	113	92.2	132	107	109	118	65.9	114	93.3	152	58.7	86.8	125	106	88	viability at 10 µM [7]: 59.3%; viability at 10 µM [14]: 84.2%; viability at 10 µM [15]: 111%; viability at 10 µM [16]: 96.8%; viability at 10 µM [17]: 110%; viability at 10 µM [18]: 91.8%; viability at 10 µM [19, 43]: 121%; viability at 10 µM [19, 44]: 106%; viability at 10 µM [20, 45]: 81.4%; viability at 10 µM [20, 46]: 88.5%; viability at 10 µM [21]: 98.2%; viability at 10 µM [22, 47]: 125%; viability at 10 µM [22, 48]: 80.1%; viability at 10 µM [23]: 105%; viability at 10 µM [24]: 66%
C=C1[C@H](CO)[C@@H](O)C[C@@H]1n1cnc2c(=O)[nH]c(N)nc21 [Entecavir hydrate]	99.9	89	98.6	88.7	46.4	118	81.2	90.8	84.1	80.8	74.1	97.2	88.9	98.8	103	53	92.9	58.6	104	57.4	viability at 10 µM [14]: 98.4%; inhibition effect on different cancer cell lines [25]: significant inhibition effect; viability at 10 µM [15]: 98.9%; viability at 10 µM [26]: 69.5%; viability at 10 µM [16]: 109%; viability at 10 µM [17]: 96.4%; viability at 10 µM [18]: 92.7%; viability at 10 µM [19, 43]: 76.9%; viability at 10 µM [19, 44]: 99.4%; viability at 10 µM [20, 45]: 96.7%; viability at 10 µM [20, 46]: 91.6%; viability at 10 µM [21]: 96.7%; viability at 10 µM [22, 47]: 92.5%; viability at 10 µM [22, 48]: 59.7%; viability at 10 µM [23]: 85.5%; viability at 10 µM [24]: 85.3%
